Here are results for ten molecules from ChEMBL document CHEMBL1201862, “PubChem BioAssay data set” (2004).

Among the test systems are 786-0; CAKI-1; UO-31; PC-3; SF-539; EKVX; HCT-116; NCI/ADR-RES; TK-10; Malme-3M; KM12; U-251; MDA-N; Hs-578T; MDA-MB-231; ACHN; MCF7; IGROV-1; M14; HCT-15.
Test in all cases: NCI tumour cell line growth inhibition, 48 h

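Following 48 hours of exposure in 96-well plates, responses at five concentrations were used to interpolate endpoints linearly. GI50 marks 50% less growth.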 Calls of active or inactive are those of the source. No stated cut-off is given here; in the data, active = GI50 up to about 1.1 µM and inactive = higher. Where only a bound is given, the exact number is not on record here.

In the case of `CN(C)Cc1ccc(O)c(CN(C)C)n1`, the GI50 in the test with 786-0, in the test on CAKI-1, in the test with UO-31, with PC-3, in the test with SF-539 and in the test with EKVX was > 100 µM (inactive) in each case. For the same molecule, the GI50 in the test with HCT-116, with NCI/ADR-RES, with TK-10, in the test on Malme-3M, in the test with KM12 and in the test on U-251 was > 100 µM (inactive) throughout. For the same molecule, the GI50 in the test with MDA-N, in the test on Hs-578T, with MDA-MB-231, in the test on ACHN, with MCF7 and in the test on IGROV-1 was > 100 µM (inactive) each time. Further, the GI50 in the test with M14 was > 100 µM (inactive); in the test on HCT-15 it was more than 100 µM.

For the molecule `Cn1nnc2c3c(N(CCO)CCO)ccnc3ccc21`, the GI50 with 786-0 was > 100 µM (inactive); in the test with CAKI-1 it was > 100 µM (inactive); in the test with UO-31 it was > 100 µM (inactive); in the test on PC-3 it was 65.6 µM (inactive); with SF-539 it was 99.5 µM (inactive); in the test on EKVX it was > 100 µM (inactive). For the same molecule, the GI50 in the test with HCT-116 is 54.2 µM (inactive); with NCI/ADR-RES, > 100 µM (inactive); with TK-10 it was > 100 µM (inactive); in the test on Malme-3M, > 100 µM (inactive); with KM12 it was 97.5 µM (inactive); in the test with MDA-N, > 100 µM (inactive). Besides, the GI50 in the test on Hs-578T was > 100 µM (inactive); with MDA-MB-231, > 100 µM (inactive); with ACHN, > 100 µM (inactive); in the test with MCF7 it was 47.9 µM (inactive); in the test on IGROV-1, > 100 µM (inactive); in the test on M14, > 100 µM (inactive). Besides, the GI50 with HCT-15 was more than 100 µM.

For the molecule `[N-]=[N+]=NC[C@H]1OCO[C@H](CN=[N+]=[N-])[C@@H](OCCOCCCl)[C@@H]1OCCOCCCl`, the GI50 with 786-0 is > 100 µM (inactive); with CAKI-1, > 100 µM (inactive); with UO-31, 30.1 µM (inactive); with PC-3, > 100 µM (inactive); with SF-539, > 100 µM (inactive); in the test with EKVX it was > 100 µM (inactive). Also, the GI50 with HCT-116, in the test with NCI/ADR-RES, with TK-10, in the test on Malme-3M, in the test with KM12 and in the test with U-251 was > 100 µM (inactive) each time. For the same molecule, the GI50 was > 100 µM (inactive) in the test with MDA-N; 80 µM (inactive) in the test with Hs-578T; > 100 µM (inactive) in the test with MDA-MB-231; > 100 µM (inactive) with MCF7; > 100 µM (inactive) in the test on IGROV-1; > 100 µM (inactive) in the test on M14. This molecule gave a GI50 with HCT-15 of more than 100 µM.

Take `CC(C)C(/C=C/c1ccc(Cl)c(Cl)c1)=N\NC(=O)N/N=C(/C=C/c1ccc(Cl)c(Cl)c1)C(C)C`: the GI50 in the test on 786-0, in the test on CAKI-1, in the test with UO-31, with PC-3, in the test on SF-539 and in the test on EKVX was > 100 µM (inactive) in each case. For the same molecule, the GI50 in the test on NCI/ADR-RES, in the test on TK-10, in the test with Malme-3M, with KM12, with U-251 and in the test on MDA-N was > 100 µM (inactive) each time. Further, the GI50 in the test with Hs-578T, in the test with MDA-MB-231, with ACHN, in the test with MCF7, in the test on IGROV-1 and in the test with M14 was > 100 µM (inactive) each time. The molecule further yielded a GI50 with HCT-15 of more than 100 µM.

In the case of `CCOC(=O)C(=[N+]=[N-])C(=O)C1(C(=O)OCC)CCN(C(=O)c2ccccc2)C1=O` (stereo not drawn), the GI50 in the test on 786-0, in the test with CAKI-1, in the test with UO-31, in the test on PC-3, with SF-539 and with EKVX was > 100 µM (inactive) throughout. For the same molecule, the GI50 in the test on HCT-116, in the test on NCI/ADR-RES, in the test with TK-10, in the test on Malme-3M, with KM12 and with MDA-N was > 100 µM (inactive) each time. Further, the GI50 in the test on Hs-578T, in the test on MDA-MB-231, with ACHN, with MCF7, in the test on IGROV-1 and in the test with M14 was > 100 µM (inactive) in each case. In addition, in the test with HCT-15, the GI50 is more than 100 µM.

Turning to `CC(=O)Nc1c(C(=N)C#N)ncn1CCO`, the GI50 with 786-0, in the test on CAKI-1, in the test with PC-3, with SF-539, with EKVX and in the test with HCT-116 was > 100 µM (inactive) throughout. For the same molecule, the GI50 in the test on NCI/ADR-RES, with TK-10, in the test on Malme-3M, with KM12, in the test with U-251 and in the test on MDA-N was > 100 µM (inactive) throughout. Further, the GI50 with Hs-578T, with MDA-MB-231, in the test on ACHN, in the test on MCF7, in the test with IGROV-1 and with M14 was > 100 µM (inactive) in each case. The same molecule yielded a GI50 with HCT-15 of more than 100 µM.

Regarding `C[N+](C)(CCNC(=O)c1cccc2cc3ccccc3nc12)Cc1ccc([N+](=O)[O-])cc1`, the GI50 with 786-0, in the test on CAKI-1, in the test on UO-31, in the test with PC-3, in the test on SF-539 and with EKVX was > 100 µM (inactive) in each case. Further, the GI50 is > 100 µM (inactive) in the test on HCT-116; > 100 µM (inactive) in the test with NCI/ADR-RES; > 100 µM (inactive) with TK-10; 49.5 µM (inactive) in the test on Malme-3M; > 100 µM (inactive) in the test with KM12; > 100 µM (inactive) with U-251. Also, the GI50 in the test on MDA-N, in the test with Hs-578T, in the test with MDA-MB-231, with ACHN, in the test with MCF7 and with IGROV-1 was > 100 µM (inactive) in each case. Further, the figures for the GI50 in the test with M14 and in the test with HCT-15 were > 100 µM (inactive) and more than 100 µM, respectively.

Regarding `NC(=O)CSc1c2cc(O)ccc2nc2ccc(O)cc12`, the GI50 with 786-0, with CAKI-1, with PC-3, in the test on SF-539, in the test on EKVX and with HCT-116 was > 10 µM (inactive) in each case. Besides, the GI50 with NCI/ADR-RES, in the test on TK-10, with Malme-3M, in the test with KM12, in the test with U-251 and in the test with MDA-N was > 10 µM (inactive) in each case. The GI50 in the test on Hs-578T, in the test on MDA-MB-231, with ACHN, with MCF7, with IGROV-1 and in the test on M14 was > 10 µM (inactive) in each case. Further, in the test with HCT-15, the GI50 is more than 10 µM.

Regarding `N=C(N)Nc1nc2cc([N+](=O)[O-])ccc2[nH]1`, the GI50 with 786-0 is > 100 µM (inactive); with CAKI-1 it was > 100 µM (inactive); with UO-31, 93.8 µM (inactive); in the test with PC-3, 81.1 µM (inactive); with SF-539, 56.6 µM (inactive); with EKVX it was 41.6 µM (inactive). Besides, the GI50 was > 100 µM (inactive) in the test on HCT-116; 58.5 µM (inactive) in the test on NCI/ADR-RES; 81.8 µM (inactive) with TK-10; > 100 µM (inactive) in the test with Malme-3M; 37.3 µM (inactive) in the test on KM12; 91.4 µM (inactive) in the test with U-251. The GI50 in the test on MDA-N was > 100 µM (inactive); with Hs-578T it was > 100 µM (inactive); with MDA-MB-231, > 100 µM (inactive); in the test with ACHN it was > 100 µM (inactive); in the test with MCF7, 48.5 µM (inactive); with IGROV-1, > 100 µM (inactive). Also, the GI50 in the test with M14 is > 100 µM (inactive); in the test with HCT-15 it was more than 100 µM.

For the molecule `C=C(C)[C@H]1C2=CC(C)=C(O2)[C@@H](O)[C@H](C(=C)C)CCC2=C[C@H]1OC2=O` [KALLOLIDE A], the GI50 in the test with 786-0, with CAKI-1, in the test with UO-31, with PC-3, in the test with SF-539 and with EKVX was > 100 µM (inactive) each time. Moreover, the GI50 in the test with NCI/ADR-RES, in the test on TK-10, in the test on Malme-3M, in the test with KM12, in the test with U-251 and with MDA-N was > 100 µM (inactive) in each case. Also, the GI50 in the test with Hs-578T, in the test with MDA-MB-231, in the test on ACHN, in the test on MCF7, with IGROV-1 and in the test on M14 was > 100 µM (inactive) throughout. Moreover, the GI50 in the test with HCT-15 is more than 100 µM.
